According to patent US7772429B2, “Diphenylazetidinone with improved physiological properties, process for its preparation, medicaments comprising this compound, and its use” (Sanofi-Aventis Deutschland GmbH, priority 2003, dated 2010):
Converted amounts (≈) assume the structure as drawn.

How the values were obtained:
[1] = Solubility in aqueous buffers, FaSSIF and FeSSIF (HPLC/UV); format: physicochemical; settings: for solubility at 4 h: 25 °C, thermodynamic from solid
Experimental: FaSSIF (fasted State Simulating Intestinal Fluid) and FeSSIF (Fed State Simulating Intestinal Fluid) media which reflect the pH/solubilization conditions in the upper small intestine in the pre- and postprandial state, respectively, were used to test this improved solubility.
0.5 mg of the compound to be tested was weighed exactly into an Eppendorf cap, and 0.5 ml of the solvent in question (aqueous buffer) was added. The Eppendorf cap was then introduced into a thermomixer and, at 25° C., shaken at 1 400 rpm for 4 hours.
The Eppendorf cap was then introduced into a centrifuge. Following centrifugation, an aliquot of the supernatant was used to determine the amount dissolved, using HPLC/UV analysis.

[2] = Stability in solution in aqueous buffers (HPLC/UV); format: physicochemical; settings: for Increase of the area of the impurities in percent: 24 hours at 37° C.
Experimental: The stability of dissolved compound I and of dissolved C1 was determined in aqueous buffers in the pH range 1.2-8.0. 1 mg of the compound in question was weighed into a 5 ml measuring flask. A small amount of acetonitrile was used to dissolve the substance. The flask was then filled up to the mark with the aqueous buffer. The precipitated compound was centrifuged and the clear supernatant was then tested for stability in solution for 24 hours at 37° C. The samples were evaluated using HPLC/UV.

[3] = system: cholesterol absorption (uptake of 14C-cholesterol by the liver); test: Cholesterol absorption test: uptake of 14C-cholesterol by the liver; format: in vivo, NMRI mice; settings: dose at which uptake of 14C-cholesterol by the liver is halved vs control group; mouse, peroral
[4] = FaSSIF, repetition of the tests
[5] = FeSSIF, repetition of the tests
[6] = aqueous buffer, pH 1.2, simulated gastric fluid, pH 1.2 aqueous buffer, 4 hours
[7] = aqueous buffer, pH 4.5, aqueous buffer, 4 hours
[8] = aqueous buffer, pH 6.8, aqueous buffer, 4 hours
[9] = aqueous buffer, pH 8, aqueous buffer, 4 hours
[10] = based on an available volume of 250 ml (Biopharmaceutical Classification System), best case

Row | Compound | solubility at 4 h ([1]; FaSSIF, 4 hours) [µg/mL] | solubility at 4 h [1, 4] [µg/mL] | solubility at 4 h ([1]; FeSSIF, 4 hours) [µg/mL] | solubility at 4 h [1, 5] [µg/mL] | solubility at 4 h [1, 6] [µg/mL] | solubility at 4 h [1, 7] [µg/mL] | solubility at 4 h [1, 8] [µg/mL] | solubility at 4 h [1, 9] [µg/mL] | soluble dose [1, 10] [mg] | soluble dose ([1]; based on an available volume of 250 ml, worst case) [mg] | solubility at 4 h ([1]; water, shaken 4 hours) [µg/mL] | Increase of the area of the impurities in percent ([2]; pH 1.2) [%] | Increase of the area of the impurities in percent ([2]; pH 6.8) [%] | Increase of the area of the impurities in percent ([2]; pH 8.0) [%] | pH of the water sample (Water (pH)) ([1]; Water, 25° C., shaken 4 hours) | times more stable than C1 ([2]; depending on the pH, relative to C1) | ED50 (liver) [3] [mg/mouse]
1 | COc1ccc([C@@H]2[C@@H](CC[C@H](O)c3ccc(F)cc3)C(=O)N2c2ccc(CNC(=O)CCCCCCCCCCCNC(=O)[C@H](O)[C@@H](O)[C@H](O)[C@H](O)CO)cc2)cc1 [Example C1, reference compound] | 5 (≈ 6.17 µM) | 6 (≈ 7.41 µM) | 18 (≈ 22.2 µM) | 20 (≈ 24.7 µM) | < 1 | < 1 | < 1 | < 1 | ~5 | 1.25 | < 1 | 13.3 | 0.5 | 4.6 |  |  | 
2 | COc1ccc([C@@H]2[C@@H](CC[C@H](O)c3ccc(F)cc3)C(=O)N2c2ccc(CNC(=O)CCCCCCCCCCC(=O)NC[C@H](O)[C@@H](O)[C@H](O)[C@H](O)CO)cc2)cc1 [Example I, dodecanedioic acid 4-[(2S,3R)-3-[(S)-3-(4-fluorophenyl)-3-hydroxypropyl]-2-(4-methoxyphenyl)-4-oxoazetidin-1-yl]benzylamide ((2S,3R,4R,5R)-2,3,4,5,6-pentahydroxyhexyl)amide] | 28 (≈ 34.6 µM) | 43 (≈ 53.1 µM) | 454 (≈ 561 µM) | 290 (≈ 358 µM) | 3 (≈ 3.7 µM) | 4 (≈ 4.94 µM) | 2 (≈ 2.47 µM) | 2 (≈ 2.47 µM) | ~100 |  | 3 (≈ 3.7 µM) | 4.9 | 0 | 0.2 | 6.8 | at least 2.7 times | 0.005
